From publication PMC10041525, “New Dual Inhibitors of Bacterial Topoisomerases with Broad-Spectrum Antibacterial Activity and In Vivo Efficacy against Vancomycin-Intermediate Staphylococcus aureus” (Journal of Medicinal Chemistry, 2023)
Converted amounts (≈) assume the structure as drawn. Read-outs that look alike come from different tables or passages of the source.

Tests used:
Format in all cases: cell-based
P. aeruginosa ATCC 27853 = test: IHMA QC MIC
E. coli ATCC 25922 = test: IHMA QC MIC; conditions: Escherichia coli, ATCC25922; read-out: MIC (QC, repeated tests)
[1] = test system: 100 A. baumannii strains (50 MDR, 50 non-MDR); test: MIC broth microdilution at IHMA Europe, panel of 100 strains; conditions: Acinetobacter baumannii, read-out: MIC

For C[C@@H](O)[C@H]1C(=O)N2C(C(=O)O)=C(S[C@@H]3CN[C@H](C(=O)N(C)C)C3)[C@H](C)[C@H]12 [Meropenem, meropenem], the “MIC (QC, repeated tests)” value (P. aeruginosa ATCC 27853) was 1 µg/mL (≈ 2.61 µM), the MIC (P. aeruginosa ATCC 27853; Pseudomonas aeruginosa, ATCC27853, read-out: MIC (QC, repeated tests)) was 0.5 µg/mL (≈ 1.3 µM) and the MIC (E. coli ATCC 25922) was no more than 0.06 µg/mL. It also gave an MIC ([1]; A. baumannii IHMA 1769393, Lithuania 2018, Non-MDR) of 0.25 µg/mL (≈ 0.652 µM), an MIC ([1]; A. baumannii IHMA 1769782, Israel 2018, MDR) greater than 16 µg/mL and an MIC ([1]; A. baumannii IHMA 1769910, Israel 2018, Non-MDR) of 0.25 µg/mL (≈ 0.652 µM). It also gave an MIC ([1]; A. baumannii IHMA 1790317, Czech Republic 2018, Non-MDR) of 0.12 µg/mL (≈ 0.313 µM), an MIC ([1]; A. baumannii IHMA 1790916, Romania 2018, Non-MDR) of no more than 0.06 µg/mL and an MIC ([1]; A. baumannii IHMA 1791877, Israel 2018, MDR) greater than 16 µg/mL. It also gave an MIC ([1]; A. baumannii IHMA 1792961, Jordan 2018, MDR) greater than 16 µg/mL, an MIC ([1]; A. baumannii IHMA 1795669, Tunisia 2018, Non-MDR) of 0.25 µg/mL (≈ 0.652 µM) and an MIC ([1]; A. baumannii IHMA 1814276, Lebanon 2018, MDR) greater than 16 µg/mL. The MIC ([1]; A. baumannii IHMA 1815198, Kuwait 2018, MDR) was greater than 16 µg/mL, the MIC ([1]; A. baumannii IHMA 1815856, Israel 2018, MDR) was greater than 16 µg/mL and the MIC ([1]; A. baumannii IHMA 1821468, South Africa 2018, Non-MDR) was 0.25 µg/mL (≈ 0.652 µM). For the same molecule, the MIC ([1]; A. baumannii IHMA 1829500, Georgia 2018, Non-MDR) was 0.12 µg/mL (≈ 0.313 µM), the MIC ([1]; A. baumannii IHMA 1830924, United Kingdom 2018, Non-MDR) was 0.5 µg/mL (≈ 1.3 µM) and the MIC ([1]; A. baumannii IHMA 1849819, Kuwait 2018, MDR) was greater than 16 µg/mL. For the same molecule, the MIC ([1]; A. baumannii IHMA 1849829, Kuwait 2018, Non-MDR) was 0.12 µg/mL (≈ 0.313 µM), the MIC ([1]; A. baumannii IHMA 1857118, Slovenia 2018, Non-MDR) was 0.25 µg/mL (≈ 0.652 µM) and the MIC ([1]; A. baumannii IHMA 1863631, France 2018, Non-MDR) was 0.12 µg/mL (≈ 0.313 µM). It also gave an MIC ([1]; A. baumannii IHMA 1870054, United States 2018, Non-MDR) of 0.25 µg/mL (≈ 0.652 µM), an MIC ([1]; A. baumannii IHMA 1884428, Italy 2018, Non-MDR) of 0.12 µg/mL (≈ 0.313 µM) and an MIC ([1]; A. baumannii IHMA 1884990, Germany 2018, Non-MDR) of 0.25 µg/mL (≈ 0.652 µM). It also gave an MIC ([1]; A. baumannii IHMA 1900538, Turkey 2018, Non-MDR) of 0.12 µg/mL (≈ 0.313 µM), an MIC ([1]; A. baumannii IHMA 1913773, Kenya 2018, Non-MDR) of 0.25 µg/mL (≈ 0.652 µM) and an MIC ([1]; A. baumannii IHMA 1926285, Qatar 2018, Non-MDR) of no more than 0.06 µg/mL. It also gave an MIC ([1]; A. baumannii IHMA 1926288, Qatar 2018, MDR) greater than 16 µg/mL, an MIC ([1]; A. baumannii IHMA 1957343, Portugal 2019, Non-MDR) of 0.25 µg/mL (≈ 0.652 µM) and an MIC ([1]; A. baumannii IHMA 1963732, Turkey 2019, MDR) greater than 16 µg/mL. For the same molecule, the MIC ([1]; A. baumannii IHMA 1967860, Spain 2019, Non-MDR) was 0.25 µg/mL (≈ 0.652 µM), the MIC ([1]; A. baumannii IHMA 1971673, Latvia 2019, MDR) was greater than 16 µg/mL and the MIC ([1]; A. baumannii IHMA 1975075, Israel 2019, Non-MDR) was 0.25 µg/mL (≈ 0.652 µM). For the same molecule, the MIC ([1]; A. baumannii IHMA 1977077, Kuwait 2019, Non-MDR) was 0.5 µg/mL (≈ 1.3 µM), the MIC ([1]; A. baumannii IHMA 1983151, Greece 2019, MDR) was greater than 16 µg/mL and the MIC ([1]; A. baumannii IHMA 1984665, Lithuania 2019, MDR) was greater than 16 µg/mL. For the same molecule, the MIC ([1]; A. baumannii IHMA 1986678, Turkey 2019, Non-MDR) was 0.25 µg/mL (≈ 0.652 µM), the MIC ([1]; A. baumannii IHMA 1986738, Turkey 2019, MDR) was greater than 16 µg/mL and the MIC ([1]; A. baumannii IHMA 1987162, Croatia 2019, MDR) was greater than 16 µg/mL. For the same molecule, the MIC ([1]; A. baumannii IHMA 1993615, Turkey 2019, MDR) was greater than 16 µg/mL, the MIC ([1]; A. baumannii IHMA 1994284, Italy 2019, MDR) was greater than 16 µg/mL and the MIC ([1]; A. baumannii IHMA 1995161, Czech Republic 2019, Non-MDR) was 0.25 µg/mL (≈ 0.652 µM). The MIC ([1]; A. baumannii IHMA 1997936, Morocco 2019, Non-MDR) was 0.12 µg/mL (≈ 0.313 µM), the MIC ([1]; A. baumannii IHMA 1999178, Belgium 2019, Non-MDR) was 0.25 µg/mL (≈ 0.652 µM) and the MIC ([1]; A. baumannii IHMA 2003279, Turkey 2019, MDR) was greater than 16 µg/mL. For the same molecule, the MIC ([1]; A. baumannii IHMA 2014367, Jordan 2019, Non-MDR) was 0.25 µg/mL (≈ 0.652 µM), the MIC ([1]; A. baumannii IHMA 2014931, South Africa 2019, Non-MDR) was 1 µg/mL (≈ 2.61 µM) and the MIC ([1]; A. baumannii IHMA 2019315, Romania 2019, Non-MDR) was 0.12 µg/mL (≈ 0.313 µM). It also gave an MIC ([1]; A. baumannii IHMA 2020360, Croatia 2019, MDR) greater than 16 µg/mL, an MIC ([1]; A. baumannii IHMA 2031511, Greece 2019, Non-MDR) of 0.12 µg/mL (≈ 0.313 µM) and an MIC ([1]; A. baumannii IHMA 2031524, Greece 2019, MDR) greater than 16 µg/mL. For the same molecule, the MIC ([1]; A. baumannii IHMA 2034657, Tunisia 2019, Non-MDR) was 0.25 µg/mL (≈ 0.652 µM), the MIC ([1]; A. baumannii IHMA 2035089, Serbia 2019, MDR) was greater than 16 µg/mL and the MIC ([1]; A. baumannii IHMA 2035134, Serbia 2019, Non-MDR) was 0.25 µg/mL (≈ 0.652 µM). For the same molecule, the MIC ([1]; A. baumannii IHMA 2038976, Hungary 2019, MDR) was greater than 16 µg/mL, the MIC ([1]; A. baumannii IHMA 2051503, Serbia 2019, MDR) was greater than 16 µg/mL and the MIC ([1]; A. baumannii IHMA 2058329, Slovenia 2019, Non-MDR) was 0.12 µg/mL (≈ 0.313 µM). For the same molecule, the MIC ([1]; A. baumannii IHMA 2065587, France 2019, Non-MDR) was 0.12 µg/mL (≈ 0.313 µM), the MIC ([1]; A. baumannii IHMA 2099294, United Kingdom 2019, Non-MDR) was 0.25 µg/mL (≈ 0.652 µM) and the MIC ([1]; A. baumannii IHMA 2129256, Qatar 2019, Non-MDR) was 0.12 µg/mL (≈ 0.313 µM). It also gave an MIC ([1]; A. baumannii IHMA 2154584, Israel 2020, MDR) of 16 µg/mL (≈ 41.7 µM) and an MIC ([1]; A. baumannii IHMA 2155340, Kenya 2020, MDR) of 16 µg/mL (≈ 41.7 µM).
